Experimental data: ChEMBL document CHEMBL3991601, “The target landscape of clinical kinase drugs” (Science, 2017)
Activity calls are given as the source filed them. Rule as the data show it, for most assays here: actives have a measured Kd and inactives only a lower limit.

Tests used:
Rab-like protein 3 = target: T1, Rab-like protein 3 (Homo sapiens, UniProt Q5HYI8)
T1 sequence (Q5HYI8 whole entry): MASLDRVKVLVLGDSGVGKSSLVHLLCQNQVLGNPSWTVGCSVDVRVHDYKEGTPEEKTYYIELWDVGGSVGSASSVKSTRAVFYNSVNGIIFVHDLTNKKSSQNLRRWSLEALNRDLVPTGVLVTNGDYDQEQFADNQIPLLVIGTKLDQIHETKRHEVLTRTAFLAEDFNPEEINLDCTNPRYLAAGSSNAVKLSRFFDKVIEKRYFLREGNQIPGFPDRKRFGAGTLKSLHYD

ADP/ATP translocase 2 = target: T2, ADP/ATP translocase 2 (Homo sapiens, UniProt P05141)
T2 sequence (P05141 whole entry): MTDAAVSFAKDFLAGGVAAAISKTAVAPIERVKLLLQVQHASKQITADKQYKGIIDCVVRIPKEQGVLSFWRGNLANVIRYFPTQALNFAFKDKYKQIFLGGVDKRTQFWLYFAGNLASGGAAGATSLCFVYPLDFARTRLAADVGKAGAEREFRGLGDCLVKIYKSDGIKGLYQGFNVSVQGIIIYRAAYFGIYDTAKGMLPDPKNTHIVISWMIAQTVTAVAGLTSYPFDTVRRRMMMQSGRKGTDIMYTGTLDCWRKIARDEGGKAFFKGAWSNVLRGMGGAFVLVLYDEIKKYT

[1] = target: Protein kinase C alpha type (Homo sapiens, UniProt P17252)
[2] = target: cAMP-dependent protein kinase catalytic subunit gamma (Homo sapiens, UniProt P22612)
[3] = target: T3, Serine/threonine-protein kinase PLK4 (Homo sapiens, UniProt O00444)
T3 sequence (O00444 whole entry): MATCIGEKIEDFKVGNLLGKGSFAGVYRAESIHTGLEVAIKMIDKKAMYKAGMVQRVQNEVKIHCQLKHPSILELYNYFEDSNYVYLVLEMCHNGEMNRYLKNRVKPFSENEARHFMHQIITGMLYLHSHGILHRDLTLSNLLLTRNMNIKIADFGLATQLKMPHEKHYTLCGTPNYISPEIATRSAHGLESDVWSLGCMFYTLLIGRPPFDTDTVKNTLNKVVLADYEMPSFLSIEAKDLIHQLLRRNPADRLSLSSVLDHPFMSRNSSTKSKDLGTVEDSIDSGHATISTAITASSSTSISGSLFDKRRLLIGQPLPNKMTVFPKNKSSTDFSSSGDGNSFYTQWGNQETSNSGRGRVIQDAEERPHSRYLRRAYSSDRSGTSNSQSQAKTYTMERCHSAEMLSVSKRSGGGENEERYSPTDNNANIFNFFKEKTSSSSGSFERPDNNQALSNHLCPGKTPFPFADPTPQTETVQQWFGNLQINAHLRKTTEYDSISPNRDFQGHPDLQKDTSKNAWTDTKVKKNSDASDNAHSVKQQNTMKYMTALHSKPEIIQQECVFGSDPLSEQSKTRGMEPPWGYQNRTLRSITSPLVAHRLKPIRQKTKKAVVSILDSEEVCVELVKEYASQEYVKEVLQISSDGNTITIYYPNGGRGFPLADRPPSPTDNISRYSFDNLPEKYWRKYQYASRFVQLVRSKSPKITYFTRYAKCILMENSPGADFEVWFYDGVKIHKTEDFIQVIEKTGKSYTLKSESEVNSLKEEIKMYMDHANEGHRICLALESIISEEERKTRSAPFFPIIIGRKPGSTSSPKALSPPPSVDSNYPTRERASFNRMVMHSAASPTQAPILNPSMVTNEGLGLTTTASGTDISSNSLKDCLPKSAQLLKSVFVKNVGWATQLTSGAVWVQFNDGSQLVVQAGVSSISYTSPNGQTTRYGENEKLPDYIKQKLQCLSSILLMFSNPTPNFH

[4] = target: Tyrosine-protein kinase BTK (Homo sapiens, UniProt Q06187)
[5] = target: Serine/threonine-protein kinase 16 (Homo sapiens, UniProt O75716)
[6] = target: T4, Serine/threonine-protein kinase 3 (Homo sapiens, UniProt Q13188)
T4 sequence (Q13188 whole entry): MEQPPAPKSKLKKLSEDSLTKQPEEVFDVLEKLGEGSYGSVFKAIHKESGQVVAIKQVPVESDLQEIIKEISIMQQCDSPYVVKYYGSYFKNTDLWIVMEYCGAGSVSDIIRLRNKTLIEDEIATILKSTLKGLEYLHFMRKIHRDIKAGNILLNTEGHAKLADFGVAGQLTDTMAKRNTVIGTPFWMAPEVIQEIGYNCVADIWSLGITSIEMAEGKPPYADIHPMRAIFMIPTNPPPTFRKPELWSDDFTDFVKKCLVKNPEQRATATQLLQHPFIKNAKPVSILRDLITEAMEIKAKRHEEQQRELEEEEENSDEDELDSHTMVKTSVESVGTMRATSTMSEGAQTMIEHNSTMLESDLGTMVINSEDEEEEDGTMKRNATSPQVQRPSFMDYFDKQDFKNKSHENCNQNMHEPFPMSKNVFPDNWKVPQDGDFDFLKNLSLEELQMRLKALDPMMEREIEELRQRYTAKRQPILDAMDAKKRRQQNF

[7] = target: T5, Serine/threonine-protein kinase Chk1 (Homo sapiens, UniProt O14757)
T5 sequence (O14757 whole entry): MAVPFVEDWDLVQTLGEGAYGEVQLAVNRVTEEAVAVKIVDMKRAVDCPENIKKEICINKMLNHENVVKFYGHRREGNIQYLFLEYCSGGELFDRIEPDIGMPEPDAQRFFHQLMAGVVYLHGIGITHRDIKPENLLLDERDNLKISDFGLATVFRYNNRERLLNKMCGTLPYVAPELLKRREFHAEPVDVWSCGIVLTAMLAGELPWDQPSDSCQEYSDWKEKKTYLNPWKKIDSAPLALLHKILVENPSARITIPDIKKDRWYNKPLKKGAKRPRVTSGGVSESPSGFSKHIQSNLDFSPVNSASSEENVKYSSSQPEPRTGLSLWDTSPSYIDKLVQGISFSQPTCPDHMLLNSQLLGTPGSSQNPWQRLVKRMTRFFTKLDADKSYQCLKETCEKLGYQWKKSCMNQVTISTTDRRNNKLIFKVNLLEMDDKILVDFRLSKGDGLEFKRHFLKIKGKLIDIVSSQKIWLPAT
Also: in the data inactive means no Kd found up to 30 µM.

Sequence of Serine/threonine-protein kinase 16 (O75716 whole entry): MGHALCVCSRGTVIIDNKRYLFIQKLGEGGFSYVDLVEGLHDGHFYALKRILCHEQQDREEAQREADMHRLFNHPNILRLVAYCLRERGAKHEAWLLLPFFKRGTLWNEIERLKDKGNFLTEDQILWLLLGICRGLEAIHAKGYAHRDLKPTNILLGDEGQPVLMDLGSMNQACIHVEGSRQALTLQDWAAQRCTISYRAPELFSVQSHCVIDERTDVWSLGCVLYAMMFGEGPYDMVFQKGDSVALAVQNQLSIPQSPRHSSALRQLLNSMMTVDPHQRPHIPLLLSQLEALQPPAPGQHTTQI
Sequence of cAMP-dependent protein kinase catalytic subunit gamma (P22612 whole entry): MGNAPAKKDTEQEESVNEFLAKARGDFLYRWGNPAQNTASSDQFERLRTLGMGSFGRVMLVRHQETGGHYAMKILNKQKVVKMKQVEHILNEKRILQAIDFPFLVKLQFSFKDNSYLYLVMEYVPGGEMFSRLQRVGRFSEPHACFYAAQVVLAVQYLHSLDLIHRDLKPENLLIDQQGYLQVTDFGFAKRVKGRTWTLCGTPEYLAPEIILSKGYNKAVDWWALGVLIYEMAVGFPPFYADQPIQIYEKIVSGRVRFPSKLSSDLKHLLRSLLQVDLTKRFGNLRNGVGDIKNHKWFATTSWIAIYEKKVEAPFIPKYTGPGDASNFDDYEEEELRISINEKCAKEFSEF
Sequence of Tyrosine-protein kinase BTK (Q06187 whole entry): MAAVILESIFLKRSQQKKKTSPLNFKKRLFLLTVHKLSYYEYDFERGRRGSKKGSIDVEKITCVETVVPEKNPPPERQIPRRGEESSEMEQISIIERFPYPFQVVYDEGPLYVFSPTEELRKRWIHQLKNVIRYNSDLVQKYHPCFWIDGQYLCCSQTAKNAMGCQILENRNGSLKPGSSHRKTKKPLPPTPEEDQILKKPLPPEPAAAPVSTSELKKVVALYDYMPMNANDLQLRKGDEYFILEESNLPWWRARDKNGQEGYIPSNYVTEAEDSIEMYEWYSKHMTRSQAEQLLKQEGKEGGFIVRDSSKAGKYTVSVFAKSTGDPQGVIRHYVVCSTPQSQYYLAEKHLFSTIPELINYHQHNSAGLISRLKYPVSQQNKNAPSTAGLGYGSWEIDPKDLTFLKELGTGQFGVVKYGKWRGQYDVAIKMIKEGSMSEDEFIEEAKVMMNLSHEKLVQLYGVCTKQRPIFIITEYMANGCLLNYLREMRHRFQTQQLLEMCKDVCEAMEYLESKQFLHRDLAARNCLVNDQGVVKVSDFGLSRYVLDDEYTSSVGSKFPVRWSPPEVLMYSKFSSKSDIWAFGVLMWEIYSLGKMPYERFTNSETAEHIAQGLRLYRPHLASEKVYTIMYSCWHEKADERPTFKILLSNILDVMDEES

Structure (SMILES) | Kd (Rab-like protein 3) | Kd (ADP/ATP translocase 2) | Kd [1] | Kd [2] | Kd [3] | Kd [4] | Kd [5] | Kd [6] | Kd [7]
O=c1sn(-c2cccc3ccccc23)c(=O)n1Cc1ccccc1 [TIDEGLUSIB] | > 30 µM (inactive) | > 30 µM (inactive) | > 30 µM (inactive) | > 30 µM (inactive) | > 30 µM (inactive) | > 30 µM (inactive) | > 30 µM (inactive) | > 30 µM (inactive) | > 30 µM (inactive)
Cn1cc(-c2ccc3nnc(C(F)(F)c4ccc5ncccc5c4)n3n2)cn1 [JNJ-38877605] | > 30 µM (inactive) | > 30 µM (inactive) | > 30 µM (inactive) | > 30 µM (inactive) | > 30 µM (inactive) | > 30 µM (inactive) | > 30 µM (inactive) | > 30 µM (inactive) | > 30 µM (inactive)
CN(C)C(=O)c1cc2cnc(Nc3ccc(N4CCNCC4)cn3)nc2n1C1CCCC1 [RIBOCICLIB] | > 30 µM (inactive) | > 30 µM (inactive) | > 30 µM (inactive) | > 30 µM (inactive) | > 30 µM (inactive) | > 30 µM (inactive) | > 30 µM (inactive) | > 30 µM (inactive) | > 30 µM (inactive)
COc1ccc(-c2ccc3c(N4CCOC[C@@H]4C)nc(N4CCOC[C@@H]4C)nc3n2)cc1CO [AZD-8055] | > 30 µM (inactive) | > 30 µM (inactive) | > 30 µM (inactive) | > 30 µM (inactive) | > 30 µM (inactive) | > 30 µM (inactive) | > 30 µM (inactive) | > 30 µM (inactive) | > 30 µM (inactive)
COc1cc2nccc(Oc3ccc(NC(=O)Nc4cc(C)on4)c(Cl)c3)c2cc1OC [TIVOZANIB] | > 30 µM (inactive) | > 30 µM (inactive) | > 30 µM (inactive) | > 30 µM (inactive) | > 30 µM (inactive) | > 30 µM (inactive) | > 30 µM (inactive) | > 30 µM (inactive) | > 30 µM (inactive)
C[C@@H](Nc1cc(F)cc(F)c1)c1cc(C(=O)N(C)C)cc2c(=O)cc(N3CCOCC3)oc12 [AZD-8186] | > 30 µM (inactive) | > 30 µM (inactive) | > 30 µM (inactive) | > 30 µM (inactive) | > 30 µM (inactive) | > 30 µM (inactive) | > 30 µM (inactive) | > 30 µM (inactive) | > 30 µM (inactive)
CNC(=O)CN1CCC(Oc2cc3c(Nc4cccc(Cl)c4F)ncnc3cc2OC)CC1 [SAPITINIB] | > 30 µM (inactive) | > 30 µM (inactive) | > 30 µM (inactive) | > 30 µM (inactive) | > 30 µM (inactive) | > 30 µM (inactive) | > 30 µM (inactive) | > 30 µM (inactive) | > 30 µM (inactive)
COC(=O)[C@@]1(O)C[C@H]2O[C@]1(C)n1c3ccccc3c3c4c(c5c6ccccc6n2c5c31)C(=O)NC4 [K-252A] | > 30 µM (inactive) | > 30 µM (inactive) |  | > 30 µM (inactive) | 0.073 µM (active) | 1.57 µM (active) | > 30 µM (inactive) | 0.043 µM (active) | 0.122 µM (active)
CCn1c(=O)c(-c2cc[nH]n2)cc2c(C)nc(N)nc21 [VOXTALISIB] |  | > 30 µM (inactive) | > 30 µM (inactive) | > 30 µM (inactive) | > 30 µM (inactive) | > 30 µM (inactive) | > 30 µM (inactive) | > 30 µM (inactive) | > 30 µM (inactive)
CO[C@H]1C[C@@H]2CC[C@@H](C)[C@@](O)(O2)C(=O)C(=O)N2CCCC[C@H]2C(=O)O[C@H]([C@H](C)C[C@@H]2CC[C@@H](OCCO)[C@H](OC)C2)CC(=O)[C@H](C)/C=C(\C)[C@@H](O)[C@@H](OC)C(=O)[C@H](C)C[C@H](C)/C=C/C=C/C=C/1C [EVEROLIMUS] |  | > 30 µM (inactive) | > 30 µM (inactive) | > 30 µM (inactive) | > 30 µM (inactive) | > 30 µM (inactive) | > 30 µM (inactive) | > 30 µM (inactive) | > 30 µM (inactive)
